How the values were obtained:
Experiment in all cases: relative viability (nuclei count vs DMSO), 5 days (fraction); higher = more cells survive
NCI-H2347 = test system: NCI-H2347
How it was run: (§1)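 Relative viability equals treated-well nuclei counts divided by vehicle-well nuclei counts. Counts came from 4× images of lung cancer cell lines grown in 1536-well plates for 5 days after pin-tool dosing on the day after seeding. Dosing used one drug alone or a fixed anchor-drug dose plus five library-drug doses (not always all listed) in √10 steps, and values are medians of duplicate plates.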

HCC-44 = test system: HCC-44
How it was run: as §1

201T = test system: 201T
How it was run: as §1

LK-2 = test system: LK-2
How it was run: as §1

NCI-H460 = test system: NCI-H460
How it was run: as §1

NCI-H838 = test system: NCI-H838
How it was run: as §1

LCLC-103H = test system: LCLC-103H
How it was run: as §1

NCI-H650 = test system: NCI-H650
How it was run: as §1

PC-14 = test system: PC-14
How it was run: as §1

NCI-H1793 = test system: NCI-H1793
How it was run: as §1

H3255 = test system: H3255
How it was run: as §1

NCI-H1944 = test system: NCI-H1944
How it was run: as §1

PC-3 [JPC-3] = test system: PC-3 [JPC-3]
How it was run: as §1

A-427 = test system: A-427
How it was run: as §1

SW 900 = test system: SW 900
How it was run: as §1

LU99A = test system: LU99A
How it was run: as §1

LCLC-97TM1 = test system: LCLC-97TM1
How it was run: as §1

NCI-H727 = test system: NCI-H727
How it was run: as §1

NCI-H23 = test system: NCI-H23
How it was run: as §1

## O=C(O)c1ccc(-c2c[nH]c3ncc(-c4ccccc4)cc23)cc1C1CCCC1 + NC(=O)Nc1cc(-c2cccc(F)c2)sc1C(=O)N[C@H]1CCCNC1 [AZD7762] (partner 0.2 µM)
NCI-H2347; first compound 0.04 µM
  relative viability: 0.821
NCI-H2347; first compound 0.1265 µM
  relative viability: 0.935
NCI-H2347; first compound 0.4 µM
  relative viability: 0.797
NCI-H2347; first compound 1.265 µM
  relative viability: 0.878
HCC-44; first compound 0.04 µM
  relative viability: 1.07
HCC-44; first compound 0.1265 µM
  relative viability: 1.03
HCC-44; first compound 0.4 µM
  relative viability: 1.01
HCC-44; first compound 1.265 µM
  relative viability: 0.946
201T; first compound 0.04 µM
  relative viability: 0.599
201T; first compound 0.1265 µM
  relative viability: 0.654
201T; first compound 0.4 µM
  relative viability: 0.664
201T; first compound 1.265 µM
  relative viability: 0.663
LK-2; first compound 0.04 µM
  relative viability: 0.446
LK-2; first compound 0.1265 µM
  relative viability: 0.614
LK-2; first compound 0.4 µM
  relative viability: 0.373
LK-2; first compound 1.265 µM
  relative viability: 0.49
NCI-H460; first compound 0.04 µM
  relative viability: 0.625
NCI-H460; first compound 0.1265 µM
  relative viability: 0.822
NCI-H460; first compound 0.4 µM
  relative viability: 0.886
NCI-H460; first compound 1.265 µM
  relative viability: 0.794
NCI-H838; first compound 0.04 µM
  relative viability: 0.978
NCI-H838; first compound 0.1265 µM
  relative viability: 1.07
NCI-H838; first compound 0.4 µM
  relative viability: 0.992
NCI-H838; first compound 1.265 µM
  relative viability: 0.92
LCLC-103H; first compound 0.04 µM
  relative viability: 0.832
LCLC-103H; first compound 0.1265 µM
  relative viability: 0.822
LCLC-103H; first compound 0.4 µM
  relative viability: 0.846
LCLC-103H; first compound 1.265 µM
  relative viability: 0.759
NCI-H650; first compound 0.04 µM
  relative viability: 1.03
NCI-H650; first compound 0.1265 µM
  relative viability: 1.11
NCI-H650; first compound 0.4 µM
  relative viability: 1.02
NCI-H650; first compound 1.265 µM
  relative viability: 0.947
PC-14; first compound 0.04 µM
  relative viability: 0.335
PC-14; first compound 0.1265 µM
  relative viability: 0.414
PC-14; first compound 0.4 µM
  relative viability: 0.407
PC-14; first compound 1.265 µM
  relative viability: 0.39
NCI-H1793; first compound 0.04 µM
  relative viability: 0.513
NCI-H1793; first compound 0.1265 µM
  relative viability: 0.752
NCI-H1793; first compound 0.4 µM
  relative viability: 0.544
NCI-H1793; first compound 1.265 µM
  relative viability: 0.798
H3255; first compound 0.04 µM
  relative viability: 0.79
H3255; first compound 0.1265 µM
  relative viability: 0.991
H3255; first compound 0.4 µM
  relative viability: 0.953
H3255; first compound 1.265 µM
  relative viability: 0.88
NCI-H1944; first compound 0.04 µM
  relative viability: 0.464
NCI-H1944; first compound 0.1265 µM
  relative viability: 0.622
NCI-H1944; first compound 0.4 µM
  relative viability: 0.637
NCI-H1944; first compound 1.265 µM
  relative viability: 0.802
PC-3 [JPC-3]; first compound 0.04 µM
  relative viability: 0.693
PC-3 [JPC-3]; first compound 0.1265 µM
  relative viability: 0.967
PC-3 [JPC-3]; first compound 0.4 µM
  relative viability: 0.806
PC-3 [JPC-3]; first compound 1.265 µM
  relative viability: 0.766
A-427; first compound 0.04 µM
  relative viability: 0.826
A-427; first compound 0.1265 µM
  relative viability: 0.911
A-427; first compound 0.4 µM
  relative viability: 0.893
A-427; first compound 1.265 µM
  relative viability: 0.726
SW 900; first compound 0.04 µM
  relative viability: 0.635
SW 900; first compound 0.1265 µM
  relative viability: 0.648
SW 900; first compound 0.4 µM
  relative viability: 0.755
SW 900; first compound 1.265 µM
  relative viability: 0.598
LU99A; first compound 0.04 µM
  relative viability: 0.486
LU99A; first compound 0.1265 µM
  relative viability: 0.522
LU99A; first compound 0.4 µM
  relative viability: 0.421
LU99A; first compound 1.265 µM
  relative viability: 0.411
LCLC-97TM1; first compound 0.04 µM
  relative viability: 0.278
LCLC-97TM1; first compound 0.1265 µM
  relative viability: 0.368
LCLC-97TM1; first compound 0.4 µM
  relative viability: 0.302
LCLC-97TM1; first compound 1.265 µM
  relative viability: 0.268
NCI-H727; first compound 0.04 µM
  relative viability: 0.459
NCI-H727; first compound 0.1265 µM
  relative viability: 0.672
NCI-H727; first compound 0.4 µM
  relative viability: 0.679
NCI-H727; first compound 1.265 µM
  relative viability: 0.612
NCI-H23; first compound 0.04 µM
  relative viability: 0.218
NCI-H23; first compound 0.1265 µM
  relative viability: 0.297
NCI-H23; first compound 0.4 µM
  relative viability: 0.237
NCI-H23; first compound 1.265 µM
  relative viability: 0.328

From the supplement of paper PMC10307832
